Source: patent US20210122724A1, “TETRACARBOXYLIC DIANHYDRIDE, CARBONYL COMPOUND, POLYIMIDE PRECURSOR RESIN, AND POLYIMIDE” (ENEOS Corporation, priority 2018, published 2021)

Test: Solubility of tetracarboxylic dianhydride in organic solvent (visual, 50 mg sample)
Type: physicochemical
Method: As the samples, the tetracarboxylic dianhydride (exo/exo type BzDA) obtained in Example 2 and the tetracarboxylic dianhydride (endo/endo type BzDA) obtained in Comparative Example 2 were separately used to confirm the solubility of each tetracarboxylic dianhydride in an organic solvent as follows. Specifically, after 50 mg of the sample was added to a screw tube, an organic solvent was added little by little into the screw tube, and the amount of the sample dissolved was visually confirmed. Note that, as the organic solvents, N,N′-dimethylacetamide and N-methyl-2-pyrrolidone were used to confirm the solubility in the solvents.

| concentration of solution that can be prepared (solubility) (solvent N,N′-dimethylacetamide) | concentration of solution that can be prepared (solubility) (solvent N-methyl-2-pyrrolidone) | SMILES |
| --- | --- | --- |
| < 1 % by mass | < 3.5 % by mass | O=C1OC(=O)C2C3CC(CC3c3ccc(C4CC5CC4C4C(=O)OC(=O)C54)cc3)C12 (stereo not drawn) [endo/endo type BzDA] |
| ≥ 5 % by mass | ≥ 5 % by mass | O=C1OC(=O)C2C3CC(CC3c3ccc(C4CC5CC4C4C(=O)OC(=O)C54)cc3)C12 (stereo not drawn) [exo/exo type BzDA, exo,exo-5,5′-(1,4-phenylene)bis(bicyclo[2.2.1]heptane-2,3-exo-dicarboxylic anhydride)] |
